Values of other authors in patent EP0496548A1, “Carbacyclin analogs” (PURDUE RESEARCH FOUNDATION, priority 1991, dated 1992).

Conditions: in vivo

SMILES | serum half-life (attributed to enzymatic oxidation) | half-life ('generally')
CCCCC[C@H](O)/C=C/[C@@H]1[C@H]2C/C(=C/CCCC(=O)O)C[C@H]2C[C@H]1O [carbacyclin] | comparable to that of prostacyclin | –
CCCCC[C@H](O)/C=C/[C@@H]1[C@H]2C/C(=C/CCCC(=O)O)O[C@H]2C[C@H]1O [prostacyclin, Prostacyclin] | – | 2 to 3 min
